Legend:
rHuTS = molecular target: T1, rHuTS (Homo sapiens, UniProt P04818); experiment: Inhibition of rHuTS reactions by Tomudex and 5-FdUMP (initial rates); type: biochemical; conditions: for initial rate of rHuTS reaction with inhibitor / rate as % of No Inhibitor: inhibitor 500 nM
T1 construct: His tag (from pET-28a(+)) (N); made in house; host or cells: E. coli BL21 (DE3)/pET-28a(+)
Method: (§1) Enzyme Assays and Kinetic Measurements. Thymidylate synthase assays were done in 96 well Costar UV transparent plates in a reaction volume of 200 μL, consisting of 40 mM Tris pH 7.5, 25 mM MgCl2, 1 mM EDTA, 25 mM-mercaptoethanol, 125M dUMP, and 65 μM N5, N10-methylene tetrahydrofolate indicated. Tetrahydrofolate stock solutions were prepared by dissolving tetrahydrofolic acid (Sigma) directly into 0.2M Tris pH 7.5, 0.5 M-mercaptoethanol; stock solutions were stored at −80° C. N5, N10-methylene tetrahydrofolate was prepared by adding 12 μl of 3.8% formaldehyde to 1 ml of a 0.65 mM solution of tetrahydrofolate and incubating for 5 minutes at 37° C. N5, N10-methylene tetrahydrofolate was kept on ice and used within 2 hours of preparation.
Conversion of BVdUMP to fluorescent product(s) by thymidylate synthase was measured in 200 μl thymidylate synthase reactions containing 125M BVdUMP in 96 well Dynex Microfluor Black “U” bottom microtiter plates using an excitation wavelength of 340 nm and emission wavelength of 595 nm. Fluorescence was measured with a Tecan Spectrafluor Plus fluorimeter.

MCF7TDX cells = experiment: 96-well combination cytotoxicity assay (crystal violet) with NB1011, MCF7TDX; type: cell-based, human; conditions: drug combined with NB1011, MCF7TDX; for CI (average combination index): 96-well crystal violet, 72 hour; on Interaction: key: Syn = synergy; Ant = antagonism; Add = additivity
Method: Cell lines: Normal human colon epithelial cells (CCD18co) and skin fibroblasts (Det55 1) were purchased from ATCC (Rockville,Md.). MCF7TDX, human breast carcinoma cells resistant to 2 μM Tomudex were obtained from Dr. Patrick Johnston, Queens University, Belfast.
The medium was renewed or the cells were passaged about every three days to maintain optimal growth conditions. Normal cells were passaged a maximum of 15 times to avoid senescence.
Cytotoxicity Studies: 384-well interaction screening assay. 500 cells per well were transferred to a 384-well tissue culture plate (Corning Inc., Corning, N.Y.) and allowed to attach for 24 hours in standard culture conditions. […] 96-well combination cytotoxicity assay. […] Compounds were then applied in duplicate half log serial dilutions. Each compound was tested separately, and mixed together at a single molar ratio approximately equal to the ratio of the individual IC50 values. After an additional 72 hour incubation, cells were washed once with PBS and stained with 0.5% crystal violet in methanol. Plates were washed gently in water to remove unbound stain and allowed to dry overnight. […] Sigmoid curves were fit according to the Hill inhibitory Emax model, and IC50 calculated as the average of three or more separate determinations. […] Briefly, the ICso and the slope parameter (m) for each agent alone were determined from the median effect plot, an x,y plot of log(D) vs log (fa/fu) based on Chou's median effect equation: fa/fu=(D/Dm)^m [Equation 1]
(§2) Only experiments with linear correlation coefficients (r) >0.9 were accepted for analysis. A combination index (CI) was then calculated to assess synergism or antagonism according to the following equation which assumes an independent mechanism of drug action (mutual exclusivity): CI=(D)1/(Dx)1+(D)2/(Dx)2+(D)1(D)2/(Dx)1 (Dx)2 [Equation 2]
(§3) where (D)1 and (D)2 are the concentrations of drug 1 and drug 2 which combined produce x% inhibition, and (Dx)1 and (Dx)2 are the concentrations of each drug which alone produce x% inhibition. CI=1 indicates an additive interaction, CI<1 indicates synergy, and CI>1 indicates antagonism. For each experiment Cl's from several different effect levels and concentrations of a constant molar ratio were averaged.

[1] = test system: Det551 normal skin fibroblasts; experiment: 96-well combination cytotoxicity assay (crystal violet) with NB1011, Det551; type: cell-based, human; conditions: for Interaction: drug combined with NB1011, Det551; for CI (average combination index): drug combined with NB1011, Det551, 96-well crystal violet, 72 hour; on Interaction: key: Syn = synergy; Ant = antagonism; Add = additivity
Method: (§4) Cell lines: Normal human colon epithelial cells (CCD18co) and skin fibroblasts (Det55 1) were purchased from ATCC (Rockville,Md.). MCF7TDX, human breast carcinoma cells resistant to 2 μM Tomudex were obtained from Dr. Patrick Johnston, Queens University, Belfast. […] The MCF7TDX and the H630R10 cell lines have been previously described in Drake, J. C. et al. (1996) and Copur, S. et al. (1995) respectively.
(§5) Culture Conditions: All cells were cultured under standard conditions of 37° C., 95% humidified air, 5% CO2 in RPMI 1640 culture medium containing 10% fetal calf serum (Life Technologies) and penicillin/streptomycin/fungizone. […] The medium was renewed or the cells were passaged about every three days to maintain optimal growth conditions. Normal cells were passaged a maximum of 15 times to avoid senescence.
(§6) Cytotoxicity Studies: 384-well interaction screening assay. 500 cells per well were transferred to a 384-well tissue culture plate (Corning Inc., Corning, N.Y.) and allowed to attach for 24 hours in standard culture conditions. Compounds were then applied in a bidirectional (checker board) pattern (Chou, T. C. and Talalay, P. (1984)). Following a 5-day incubation, the redox indicator dye, alamarBlue (AccuMed International, Westlake, Ohio) was added to each well at a 10% v/v ratio, and fluorescence was monitored at 535 excitation, 595 emission. Cytotoxic effect levels and drug interactions were assessed by the combination index method (Chou, T. C. and Talalay, P. (1984) and Bible, K. C. et al. (1997)), described briefly below. 96-well combination cytotoxicity assay. Exponentially growing cells were transferred at a density of 1.0-5.5×10^3 cells per well to a 96-well tissue culture plate and allowed to attach for 24 hours. Compounds were then applied in duplicate half log serial dilutions. Each compound was tested separately, and mixed together at a single molar ratio approximately equal to the ratio of the individual IC50 values. After an additional 72 hour incubation, cells were washed once with PBS and stained with 0.5% crystal violet in methanol. Plates were washed gently in water to remove unbound stain and allowed to dry overnight. […] Sigmoid curves were fit according to the Hill inhibitory Emax model, and IC50 calculated as the average of three or more separate determinations. Where applicable, the combination index for multiple drug effects was calculated according to the median-effect principle (Chou, T. C. and Talalay, P. (1984)) using the CalcuSyn software from Biosoft (Ferguson, Mo.). Briefly, the ICso and the slope parameter (m) for each agent alone were determined from the median effect plot, an x,y plot of log(D) vs log (fa/fu) based on Chou's median effect equation: fa/fu=(D/Dm)^m [Equation 1]
as §2, §3

[2] = test system: CCD18co normal colon epithelial cells; experiment: 96-well combination cytotoxicity assay (crystal violet) with NB1011, CCD18co; type: cell-based, human; conditions: drug combined with NB1011, CCD18co; for CI (average combination index): 96-well crystal violet, 72 hour
Method: as §4, §5, §6, §2, §3

[3] = molecular target: T2, rHuTS (recombinant human thymidylate synthase) (Homo sapiens, UniProt P04818); experiment: Enzyme kinetics of rHuTS with dUMP and BVdUMP; type: biochemical; conditions: rHuTS
T2 construct: His tag (from pET-28a(+)) (N); made in house; host or cells: E. coli BL21 (DE3)/pET-28a(+)
Method: Enzyme Preparation. Cloned human thymidylate synthase plasmid pBCHTS was subcloned into E. coli. BL21 (DE3)/pET-28a(+) (Novagen) using the Ndel ñSacI insertion site, in order to add an amino terminal His tag. Enzyme was expressed in E. coli. by induction with IPTG, and purified by affinity chromatography on a Ni^2+ His Bind metal chelation resin (Novagen). The column Ni^2+ His Bind metal chelation column was washed with 20 mM Tris pH 7.9, 5 mM imidazole, 0.5M NaCl; thymidylate synthase activity was eluted with 20 mM Tris pH 7.9, 60 mM imidazole, 0.5M NaCl.
as §1
Enzyme kinetic constants (Km and Vmax) were determined for the human thymidylate synthase substrates dUMP and BVdUMP using the enzyme assay conditions described above. The initial rates of the enzyme reactions was determined by measuring the increase in A340 for the reaction with dUMP, and decrease in A294 for the reaction with BVdUMP. The catalytic efficiency of the enzyme (Kcat/Km) was calculated from the kinetic constants Km and Vmax.

Lactobacillus casei TS = molecular target: T3, Lactobacillus casei TS (Lacticaseibacillus casei, UniProt P00469); conditions: cited from earlier work
T3 sequence (P00469 1-316): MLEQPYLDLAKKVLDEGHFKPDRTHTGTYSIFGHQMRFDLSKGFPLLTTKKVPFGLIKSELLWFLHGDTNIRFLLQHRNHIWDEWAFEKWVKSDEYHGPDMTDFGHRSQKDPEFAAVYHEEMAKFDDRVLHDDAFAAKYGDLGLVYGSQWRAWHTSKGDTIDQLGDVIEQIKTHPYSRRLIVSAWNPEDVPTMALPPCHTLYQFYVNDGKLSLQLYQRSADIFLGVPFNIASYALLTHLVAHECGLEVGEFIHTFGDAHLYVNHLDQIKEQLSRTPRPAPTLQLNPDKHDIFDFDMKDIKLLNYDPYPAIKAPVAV

[4] = BVdUMP reaction, read-out: Kl (of dUMP)

T2 sequence (P04818 whole entry): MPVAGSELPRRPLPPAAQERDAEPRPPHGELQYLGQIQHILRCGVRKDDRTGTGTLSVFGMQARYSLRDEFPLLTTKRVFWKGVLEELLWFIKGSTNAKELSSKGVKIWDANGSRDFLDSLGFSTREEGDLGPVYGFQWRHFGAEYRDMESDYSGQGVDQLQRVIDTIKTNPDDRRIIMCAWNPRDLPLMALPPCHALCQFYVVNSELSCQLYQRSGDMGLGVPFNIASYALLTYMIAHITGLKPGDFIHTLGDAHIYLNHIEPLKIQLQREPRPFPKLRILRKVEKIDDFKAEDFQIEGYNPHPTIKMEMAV
T1 sequence (P04818 whole entry): as above

In the case of `O=c1[nH]c(=O)n([C@H]2C[C@H](O)[C@@H](COP(=O)(O)O)O2)cc1F` [5-FdUMP], the “initial rate of rHuTS reaction with inhibitor” value (“initial rate … with inhibitor” below) (rHuTS; BVdUMP + THF) is reported as 44 ± 2 RFU/min, the “rate as % of No Inhibitor” value (rHuTS; BVdUMP + THF) is reported as “(40%)” and the “initial rate … with inhibitor” value (rHuTS; BVdUMP − THF) is reported as 93 ± 13 RFU/min. The “rate as % of No Inhibitor” value (rHuTS; BVdUMP − THF) was “(129%)”, the “initial rate … with inhibitor” value (rHuTS; dUMP + THF) was 290 ± 70 nmol/min and the “rate as % of No Inhibitor” value (rHuTS; dUMP + THF) was “(19%)”.

For `OCCN(CCO)c1nc(N2CCCCC2)c2nc(N(CCO)CCO)nc(N3CCCCC3)c2n1` [Dipyridamole, dipyridamole], the Interaction (MCF7TDX cells) was “Syn”, the “CI (average combination index)” value (MCF7TDX cells) was 0.51 and the Interaction [1] was “Add”. The “CI (average combination index)” value [1] was 1.17, the Interaction [2] was “Ant” and the “CI (average combination index)” value [2] was 1.30.

With `COc1cccc2c1C(=O)c1c(O)c3c(c(O)c1C2=O)C[C@@](O)(C(=O)CO)C[C@@H]3O[C@H]1C[C@H](N)[C@H](O)[C@H](C)O1` [Doxorubicin] the Interaction (MCF7TDX cells) was “Ant”.

With `O=C1[O][Pt]2([NH][C@@H]3CCCC[C@H]3[NH]2)[O]C1=O` [Oxaliplatin] the Interaction (MCF7TDX cells) was “Ant”.

In the case of `Cc1nc2ccc(CN(C)c3ccc(C(=O)N[C@@H](CCC(=O)O)C(=O)O)s3)cc2c(=O)[nH]1` [Tomudex], the “initial rate … with inhibitor” value (rHuTS; BVdUMP + THF) is reported as 67 ± 3 RFU/min, the “initial rate … with inhibitor” value (rHuTS; BVdUMP − THF) is reported as 34 ± 3 RFU/min and the “initial rate … with inhibitor” value (rHuTS; dUMP + THF) is reported as 690 ± 40 nmol/min.

With `CC[C@]1(O)C[C@@H]2CN(CCc3c([nH]c4ccccc34)[C@@](C(=O)OC)(c3cc4c(cc3OC)N(C)[C@H]3[C@@](O)(C(=O)OC)[C@H](OC(C)=O)[C@]5(CC)C=CCN6CC[C@]43[C@@H]65)C2)C1` [Vinblastine] the Interaction (MCF7TDX cells) was “Ant”, the Interaction [1] was “Syn” and the Interaction [2] was “Syn”.

For `O=c1ccn([C@H]2C[C@H](O)[C@@H](COP(=O)(O)O)O2)c(=O)[nH]1` [dUMP], the Kcat [3] was 0.2 s⁻¹, the “form of inhibition of the BVdUMP reaction (Michaelis-Menton kinetics)” value [3] was “competitive inhibition” and the Ki [3, 4] was 17.5 µM. For the same molecule, the Km ([3]; substrate) was 7.7 µM, the “initial rate of rHuTS reaction, No Inhibitor” value (rHuTS; dUMP + THF, 30° C., increase in A340) was 1500 ± 20 nmol/min and the Ki (Lactobacillus casei TS; [4]) was 2000 nM. The Kcat (Lactobacillus casei TS) was 6.4 s⁻¹ and the Km (Lactobacillus casei TS; substrate) was 3000 nM.

For `O=[N+]([O-])c1ccc(CSc2ncnc3c2ncn3C2OC(CO)C(O)C2O)cc1` (stereo not shown) [p-Nitrobenzyl-Thioinosine (NBMPR), p-nitrobenzylthioinosine], the Interaction (MCF7TDX cells) was “Syn”, the “CI (average combination index)” value (MCF7TDX cells) was 0.57 and the Interaction [1] was “Ant”. For the same molecule, the “CI (average combination index)” value [1] was 1.43, the Interaction [2] was “Ant” and the “CI (average combination index)” value [2] was 3.93.
